This is an account of results in ChEMBL document CHEMBL1145008, “Relationship between stereochemistry and the beta3-adrenoceptor agonistic activity of 4'-hydroxynorephedrine derivative as an agent for treatment of frequent urination and urinary incontinence” (J Med Chem, 2003).

For assay [1], the target named is Beta-1 adrenergic receptor (Rattus norvegicus) (UniProt P18090).
Description: Mean concentration required to increase basal rate of rat atria by 20 beats per minute
Assay [2] shares this target. The source holds these as a separate data set.
Description: (§1) Agonistic activity for Beta-1 adrenergic receptor was estimated from it's chronotropic effect on rat atria
Assay [3] has as its target Beta-2 adrenergic receptor (Rattus norvegicus) (UniProt P10608). As to the kind of experiment: Agonistic activity for Beta-2 adrenergic receptor was assessed by it's inhibitory effect on spontaneous contractions in isolated rat uterus.
The target in assay [4] is Beta-1 adrenergic receptor (Rattus norvegicus) (UniProt P18090). This is another data set of the same source.
Description: as §1

Sequence of Beta-1 adrenergic receptor (Rattus norvegicus) (P18090 whole entry, looked up): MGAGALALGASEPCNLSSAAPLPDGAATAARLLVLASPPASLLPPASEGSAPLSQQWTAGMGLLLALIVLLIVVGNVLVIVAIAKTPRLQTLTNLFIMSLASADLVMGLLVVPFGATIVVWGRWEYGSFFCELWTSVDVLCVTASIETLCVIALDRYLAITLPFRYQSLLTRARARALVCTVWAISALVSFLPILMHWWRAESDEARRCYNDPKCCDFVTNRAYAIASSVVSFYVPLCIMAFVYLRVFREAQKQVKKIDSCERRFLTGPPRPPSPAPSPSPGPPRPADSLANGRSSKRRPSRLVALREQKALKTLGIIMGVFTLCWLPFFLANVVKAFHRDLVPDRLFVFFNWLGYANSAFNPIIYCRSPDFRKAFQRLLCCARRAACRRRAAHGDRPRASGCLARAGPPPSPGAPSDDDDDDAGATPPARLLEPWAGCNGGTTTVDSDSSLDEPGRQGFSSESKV
Sequence of Beta-2 adrenergic receptor (Rattus norvegicus) (P10608 whole entry, looked up): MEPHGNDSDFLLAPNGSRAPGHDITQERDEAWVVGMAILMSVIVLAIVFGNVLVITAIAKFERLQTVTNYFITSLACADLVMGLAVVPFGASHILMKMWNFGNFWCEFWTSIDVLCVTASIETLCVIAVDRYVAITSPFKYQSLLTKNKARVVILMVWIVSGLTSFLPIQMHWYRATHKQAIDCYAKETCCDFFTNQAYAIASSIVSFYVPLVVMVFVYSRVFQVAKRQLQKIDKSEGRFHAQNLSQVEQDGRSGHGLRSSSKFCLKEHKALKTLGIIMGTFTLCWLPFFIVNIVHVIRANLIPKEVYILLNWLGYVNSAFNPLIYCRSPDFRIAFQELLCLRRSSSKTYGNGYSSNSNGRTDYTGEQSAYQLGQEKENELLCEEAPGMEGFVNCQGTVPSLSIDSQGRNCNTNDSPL

With `C[C@H](NCCc1ccc(OCC(=O)O)c(Cl)c1)[C@@H](O)c1ccc(O)cc1`, in assay [1], the 20% effect level (EC20) was put at 55 µM. The same compound had a pEC20 in assay [2] of 4.26.
Take `CCOC(=O)COc1ccc(CCNC(C)C(O)c2ccc(O)cc2)cc1Cl` (stereo not given): the 20% effect level in assay [1] (EC20) was put at 1.6 µM. This compound yielded a pEC20 in assay [2] of 5.8.
Consider `C[C@H](Cc1ccc(OCC(=O)O)cc1)NC[C@H](O)c1cccc(Cl)c1` (relative stereo), for which the IC50 (as a rule, the concentration that gives 50% inhibition) in assay [3] was 0.00912 µM.
`C[C@@H](NCCc1ccc(OCC(=O)O)c(Cl)c1)[C@@H](O)c1ccc(O)cc1`: the pEC20 in assay [4] was 4.86. Moreover, the EC20 – broadly, the point of the concentration-response curve where the effect stands at 20% – in assay [1] turned out to be 14 µM.
In the case of `C[C@@H](NCCc1ccc(OCC(=O)O)c(Cl)c1)[C@H](O)c1ccc(O)cc1`, it took 21 µM to reach the 20% level in assay [1] (EC20). The pEC20 in assay [2] amounted to 4.68.
In assay [1], `C[C@H](NCCc1ccc(OCC(=O)O)c(Cl)c1)[C@H](O)c1ccc(O)cc1` came in with an EC20 of over 100 µM.
